Laboratory results published in ChEMBL document CHEMBL1201862, “PubChem BioAssay data set” (2004).
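Five concentrations, 48 hours, 96-well plates. GI50: concentration for 50% inhibition of growth.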 Activity calls are given as the source filed them. Rule as the data show it: active = GI50 up to about 1.1 µM and inactive = higher.

Experiments:
Test in all cases: NCI-60 cell line screen, 48 h
SF-268 = test system: SF-268
A549 = test system: A549
NCI-H522 = test system: NCI-H522
LOX IMVI = test system: LOX IMVI
UACC-62 = test system: UACC-62
HL-60 = test system: HL-60
SW-620 = test system: SW-620
U-251 = test system: U-251
SK-MEL-5 = test system: SK-MEL-5
KM-20L2 = test system: KM-20L2
CCRF-CEM = test system: CCRF-CEM
Malme-3M = test system: Malme-3M
MOLT-4 = test system: MOLT-4
SK-MEL-2 = test system: SK-MEL-2
HOP-92 = test system: HOP-92
LXFL 529 = test system: LXFL 529
NCI-H226 = test system: NCI-H226
SNB-75 = test system: SNB-75
ACHN = test system: ACHN
RPMI-8226 = test system: RPMI-8226
OVCAR-3 = test system: OVCAR-3
HCT-15 = test system: HCT-15
CAKI-1 = test system: CAKI-1
HOP-62 = test system: HOP-62
HCT-116 = test system: HCT-116
UACC-257 = test system: UACC-257
IGROV-1 = test system: IGROV-1
NCI-H460 = test system: NCI-H460
SK-MEL-28 = test system: SK-MEL-28
HT-29 = test system: HT-29
DMS-273 = test system: DMS-273
DLD-1 = test system: DLD-1
SF-539 = test system: SF-539
NCI-H23 = test system: NCI-H23
SNB-19 = test system: SNB-19
OVCAR-4 = test system: OVCAR-4
SNB-78 = test system: SNB-78
M19-MEL = test system: M19-MEL
M14 = test system: M14
SF-295 = test system: SF-295
A498 = test system: A498
SK-OV-3 = test system: SK-OV-3
EKVX = test system: EKVX
OVCAR-8 = test system: OVCAR-8
KM12 = test system: KM12
OVCAR-5 = test system: OVCAR-5
TK-10 = test system: TK-10
K562 = test system: K562
UO-31 = test system: UO-31
XF498 = test system: XF498
SN12C = test system: SN12C
786-0 = test system: 786-0
DMS-114 = test system: DMS-114
COLO 205 = test system: COLO 205
SR = test system: SR
HCC 2998 = test system: HCC 2998
NCI/ADR-RES = test system: NCI/ADR-RES
T47D = test system: T47D
MDA-MB-435 = test system: MDA-MB-435
RXF 393 = test system: RXF 393
PC-3 = test system: PC-3
MDA-MB-231 = test system: MDA-MB-231
MCF7 = test system: MCF7
Hs-578T = test system: Hs-578T
MDA-N = test system: MDA-N
BT-549 = test system: BT-549
DU-145 = test system: DU-145

Nc1ccc(C(=O)NN2C(=O)C(Cl)C2c2ccc(O)cc2)cc1 (stereo unspecified)
GI50 (SF-268): 13.4 µM (inactive) | GI50 (A549): 56.9 µM (inactive) | GI50 (NCI-H522): 11.6 µM (inactive) | GI50 (LOX IMVI): 9.27 µM (inactive) | GI50 (UACC-62): 14.9 µM (inactive) | GI50 (HL-60): 15.6 µM (inactive) | GI50 (SW-620): 23.3 µM (inactive) | GI50 (U-251): 16.1 µM (inactive) | GI50 (SK-MEL-5): 17.2 µM (inactive) | GI50 (KM-20L2): 19.9 µM (inactive) | GI50 (CCRF-CEM): 12.3 µM (inactive) | GI50 (Malme-3M): 18.5 µM (inactive) | GI50 (MOLT-4): 16.1 µM (inactive) | GI50 (SK-MEL-2): 15.3 µM (inactive) | GI50 (HOP-92): 24.5 µM (inactive) | GI50 (LXFL 529): 17.8 µM (inactive) | GI50 (NCI-H226): 25.4 µM (inactive) | GI50 (SNB-75): 26.5 µM (inactive) | GI50 (ACHN): 35.2 µM (inactive) | GI50 (RPMI-8226): 49.1 µM (inactive) | GI50 (OVCAR-3): 15 µM (inactive) | GI50 (HCT-15): 21.4 µM | GI50 (CAKI-1): 25.1 µM (inactive) | GI50 (HOP-62): 21.7 µM (inactive) | GI50 (HCT-116): 19.2 µM (inactive) | GI50 (UACC-257): 36.1 µM (inactive) | GI50 (IGROV-1): 17.8 µM (inactive) | GI50 (NCI-H460): 19.3 µM (inactive) | GI50 (SK-MEL-28): 22.1 µM (inactive) | GI50 (HT-29): 24.7 µM (inactive) | GI50 (DMS-273): 17.2 µM (inactive) | GI50 (DLD-1): 18.1 µM (inactive) | GI50 (SF-539): 19.1 µM (inactive) | GI50 (NCI-H23): 17.9 µM (inactive) | GI50 (SNB-19): 16 µM (inactive) | GI50 (OVCAR-4): 19.1 µM (inactive) | GI50 (SNB-78): 11.9 µM (inactive) | GI50 (M19-MEL): 20.1 µM (inactive) | GI50 (M14): 17.5 µM (inactive) | GI50 (SF-295): 33 µM (inactive) | GI50 (A498): 36 µM (inactive) | GI50 (SK-OV-3): 22.8 µM (inactive) | GI50 (EKVX): 16.6 µM (inactive) | GI50 (OVCAR-8): 26.5 µM (inactive) | GI50 (KM12): 21.8 µM (inactive) | GI50 (OVCAR-5): 21.7 µM (inactive) | GI50 (TK-10): 44.3 µM (inactive) | GI50 (K562): 21.3 µM (inactive) | GI50 (UO-31): 23.3 µM (inactive) | GI50 (XF498): 14.7 µM (inactive) | GI50 (SN12C): 20.1 µM (inactive) | GI50 (786-0): 17.5 µM (inactive) | GI50 (DMS-114): 13 µM (inactive) | GI50 (COLO 205): 18.8 µM (inactive)

COc1ccc(/C=N/Nc2nc(C)c3c(n2)Nc2ccccc2NC3=O)cc1
GI50 (SF-268): > 100 µM (inactive) | GI50 (NCI-H522): > 100 µM (inactive) | GI50 (UACC-62): > 100 µM (inactive) | GI50 (HL-60): > 100 µM (inactive) | GI50 (CCRF-CEM): > 100 µM (inactive) | GI50 (Malme-3M): > 100 µM (inactive) | GI50 (MOLT-4): > 100 µM (inactive) | GI50 (SK-MEL-2): > 100 µM (inactive) | GI50 (HOP-92): > 100 µM (inactive) | GI50 (LXFL 529): 76.7 µM (inactive) | GI50 (NCI-H226): > 100 µM (inactive) | GI50 (SNB-75): 42.6 µM (inactive) | GI50 (ACHN): > 100 µM (inactive) | GI50 (RPMI-8226): > 100 µM (inactive) | GI50 (CAKI-1): > 100 µM (inactive) | GI50 (HOP-62): > 100 µM (inactive) | GI50 (HCT-116): > 100 µM (inactive) | GI50 (IGROV-1): > 100 µM (inactive) | GI50 (SK-MEL-28): > 100 µM (inactive) | GI50 (DMS-273): > 100 µM (inactive) | GI50 (DLD-1): > 100 µM (inactive) | GI50 (SF-539): > 100 µM (inactive) | GI50 (NCI-H23): > 100 µM (inactive) | GI50 (OVCAR-4): > 100 µM (inactive) | GI50 (SNB-78): > 100 µM (inactive) | GI50 (M19-MEL): > 100 µM (inactive) | GI50 (M14): > 100 µM (inactive) | GI50 (SR): > 100 µM (inactive) | GI50 (A498): > 100 µM (inactive) | GI50 (SK-OV-3): > 100 µM (inactive) | GI50 (K562): > 100 µM (inactive) | GI50 (UO-31): > 100 µM (inactive) | GI50 (XF498): > 100 µM (inactive) | GI50 (SN12C): > 100 µM (inactive) | GI50 (786-0): > 100 µM (inactive) | GI50 (DMS-114): > 100 µM (inactive) | GI50 (HCC 2998): > 100 µM (inactive) | GI50 (COLO 205): > 100 µM (inactive)

COc1cc([C@@H]2c3cc4c(cc3[C@H](OC3OC5COC(C(C)C)OC5C(O)C3O)C3COC(=O)[C@@H]32)OCO4)cc(OC)c1OC (stereo partly specified)
GI50 (SF-268): 5.81 µM (inactive) | GI50 (NCI/ADR-RES): 3.19 µM (inactive) | GI50 (A549): 3.96 µM (inactive) | GI50 (NCI-H522): 3.24 µM (inactive) | GI50 (LOX IMVI): 3.01 µM (inactive) | GI50 (UACC-62): 4.7 µM (inactive) | GI50 (HL-60): 3.85 µM (inactive) | GI50 (SW-620): 4.48 µM (inactive) | GI50 (U-251): 3.93 µM (inactive) | GI50 (SK-MEL-5): 5.55 µM (inactive) | GI50 (T47D): 12.7 µM (inactive) | GI50 (CCRF-CEM): 3.49 µM (inactive) | GI50 (Malme-3M): 4.57 µM (inactive) | GI50 (MOLT-4): 4.84 µM (inactive) | GI50 (SK-MEL-2): 8.36 µM (inactive) | GI50 (HOP-92): 6.85 µM (inactive) | GI50 (MDA-MB-435): 4.37 µM (inactive) | GI50 (NCI-H226): 2.96 µM (inactive) | GI50 (SNB-75): 11.6 µM (inactive) | GI50 (ACHN): 4.79 µM (inactive) | GI50 (RPMI-8226): 5.71 µM (inactive) | GI50 (RXF 393): 2.3 µM (inactive) | GI50 (OVCAR-3): 2.62 µM (inactive) | GI50 (HCT-15): 4.49 µM | GI50 (CAKI-1): 4.15 µM (inactive) | GI50 (HOP-62): 7.24 µM (inactive) | GI50 (HCT-116): 2.83 µM (inactive) | GI50 (UACC-257): 5.01 µM (inactive) | GI50 (IGROV-1): 4.17 µM (inactive) | GI50 (NCI-H460): 2.34 µM (inactive) | GI50 (PC-3): 4.89 µM (inactive) | GI50 (SK-MEL-28): > 100 µM (inactive) | GI50 (HT-29): 2.54 µM (inactive) | GI50 (SF-539): 3.6 µM (inactive) | GI50 (MDA-MB-231): 5.77 µM (inactive) | GI50 (MCF7): 3.38 µM (inactive) | GI50 (NCI-H23): 4.55 µM (inactive) | GI50 (SNB-19): 6.19 µM (inactive) | GI50 (OVCAR-4): 16.6 µM (inactive) | GI50 (M14): 5.24 µM (inactive) | GI50 (SF-295): 3.47 µM (inactive) | GI50 (SR): 2.11 µM (inactive) | GI50 (A498): 2.89 µM (inactive) | GI50 (SK-OV-3): 6.32 µM (inactive) | GI50 (EKVX): 10.2 µM (inactive) | GI50 (OVCAR-8): 4.13 µM (inactive) | GI50 (KM12): 3.61 µM (inactive) | GI50 (OVCAR-5): 10.3 µM (inactive) | GI50 (Hs-578T): 3.17 µM (inactive) | GI50 (TK-10): 32 µM (inactive) | GI50 (K562): 3.19 µM (inactive) | GI50 (UO-31): 11.1 µM (inactive) | GI50 (MDA-N): 2.18 µM (inactive) | GI50 (BT-549): 5.52 µM (inactive) | GI50 (SN12C): 19.5 µM (inactive) | GI50 (786-0): 2.58 µM (inactive) | GI50 (HCC 2998): 5.16 µM (inactive) | GI50 (COLO 205): 4.59 µM (inactive) | GI50 (DU-145): 11.7 µM (inactive)
